Measurements from ChEMBL document CHEMBL3044821, “Microwave-induced CAN promoted atom-economic synthesis of 1H-benzo[b]xanthene and 4H-benzo[g]chromene derivatives of N-allyl quinolone and their antimicrobial activity” (2013).
Converted amounts (≈) assume the structure as drawn.

How the values were obtained:
Assay type in all cases: functional
Candida albicans = assay: Antifungal activity against Candida albicans MTCC 227 assessed as growth inhibition after 24 to 48 hr by NCCLS broth microdilution method
Pseudomonas aeruginosa = assay: Antibacterial activity against Pseudomonas aeruginosa MTCC 1688 assessed as growth inhibition after 24 to 48 hr by NCCLS broth microdilution method
Escherichia coli = assay: Antibacterial activity against Escherichia coli MTCC 443 assessed as growth inhibition after 24 to 48 hr by NCCLS broth microdilution method
Streptococcus pyogenes = assay: Antibacterial activity against Streptococcus pyogenes MTCC 442 assessed as growth inhibition after 24 to 48 hr by NCCLS broth microdilution method
Staphylococcus aureus = assay: Antibacterial activity against Staphylococcus aureus MTCC 96 assessed as growth inhibition after 24 to 48 hr by NCCLS broth microdilution method
Aspergillus niger = assay: Antifungal activity against Aspergillus niger MTCC 282 assessed as growth inhibition after 24 to 48 hr by NCCLS broth microdilution method
Aspergillus clavatus = assay: Antifungal activity against Aspergillus clavatus MTCC 1323 assessed as growth inhibition after 24 to 48 hr by NCCLS broth microdilution method

Compound	MIC (Candida albicans) [µg/mL]	MIC (Pseudomonas aeruginosa) [µg/mL]	MIC (Escherichia coli) [µg/mL]	MIC (Streptococcus pyogenes) [µg/mL]	MIC (Staphylococcus aureus) [µg/mL]	MIC (Aspergillus niger) [µg/mL]	MIC (Aspergillus clavatus) [µg/mL]
C=CCn1c(=O)c(C2C3=C(CC(C)(C)CC3=O)OC3=C2C(=O)c2ccccc2C3=O)cc2ccccc21 (stereo not drawn)	> 1000	100 (≈ 203 µM)	100 (≈ 203 µM)	200 (≈ 407 µM)	250 (≈ 509 µM)	> 1000	> 1000
C=CCn1c(=O)c(C2C(C(=O)OC(C)C)=C(N)OC3=C2C(=O)c2ccccc2C3=O)cc2cc(OC)ccc21 (stereo not drawn)	1000 (≈ 1900 µM)	200 (≈ 380 µM)	250 (≈ 475 µM)	200 (≈ 380 µM)	100 (≈ 190 µM)	500 (≈ 950 µM)	500 (≈ 950 µM)
NYSTATIN	100	–	–	–	–	100	100
C=CCn1c(=O)c(C2C(C#N)=C(N)OC3=C2C(=O)c2ccccc2C3=O)cc2cc(OC)ccc21 (stereo not drawn)	1000 (≈ 2150 µM)	200 (≈ 430 µM)	125 (≈ 269 µM)	200 (≈ 430 µM)	250 (≈ 537 µM)	> 1000	1000 (≈ 2150 µM)
C=CCn1c(=O)c(C2C(C#N)=C(N)OC3=C2C(=O)c2ccccc2C3=O)cc2cc(Cl)ccc21 (stereo not drawn)	500 (≈ 1060 µM)	500 (≈ 1060 µM)	200 (≈ 426 µM)	100 (≈ 213 µM)	500 (≈ 1060 µM)	1000 (≈ 2130 µM)	100 (≈ 213 µM)
C=CCn1c(=O)c(C2C(C#N)=C(N)OC3=C2C(=O)c2ccccc2C3=O)cc2ccccc21 (stereo not drawn)	250 (≈ 574 µM)	250 (≈ 574 µM)	100 (≈ 230 µM)	250 (≈ 574 µM)	62.5 (≈ 144 µM)	500 (≈ 1150 µM)	> 1000
C=CCn1c(=O)c(C2C3=C(CCCC3=O)OC3=C2C(=O)c2ccccc2C3=O)cc2cc(Cl)ccc21 (stereo not drawn)	500 (≈ 1000 µM)	62.5 (≈ 126 µM)	250 (≈ 502 µM)	50 (≈ 100 µM)	500 (≈ 1000 µM)	1000 (≈ 2010 µM)	100 (≈ 201 µM)
C=CCn1c(=O)c(C2C3=C(CCCC3=O)OC3=C2C(=O)c2ccccc2C3=O)cc2ccccc21 (stereo not drawn)	250 (≈ 539 µM)	250 (≈ 539 µM)	200 (≈ 432 µM)	125 (≈ 270 µM)	200 (≈ 432 µM)	500 (≈ 1080 µM)	500 (≈ 1080 µM)
C=CCn1c(=O)c(C2C3=C(CC(C)(C)CC3=O)OC3=C2C(=O)c2ccccc2C3=O)cc2cc(C)ccc21 (stereo not drawn)	> 1000	500 (≈ 989 µM)	62.5 (≈ 124 µM)	250 (≈ 494 µM)	500 (≈ 989 µM)	125 (≈ 247 µM)	1000 (≈ 1980 µM)
C=CCn1c(=O)c(C2C(C(=O)OC(C)C)=C(N)OC3=C2C(=O)c2ccccc2C3=O)cc2ccccc21 (stereo not drawn)	500 (≈ 1010 µM)	50 (≈ 101 µM)	200 (≈ 403 µM)	250 (≈ 504 µM)	500 (≈ 1010 µM)	250 (≈ 504 µM)	> 1000
COC1=CC(=O)C[C@@H](C)[C@]12Oc1c(Cl)c(OC)cc(OC)c1C2=O [GRISEOFULVIN]	500 (≈ 1420 µM)	–	–	–	–	100 (≈ 283 µM)	100 (≈ 283 µM)
C=CCn1c(=O)c(C2C3=C(CCCC3=O)OC3=C2C(=O)c2ccccc2C3=O)cc2cc(OC)ccc21 (stereo not drawn)	1000 (≈ 2030 µM)	20 (≈ 40.5 µM)	250 (≈ 507 µM)	500 (≈ 1010 µM)	500 (≈ 1010 µM)	100 (≈ 203 µM)	1000 (≈ 2030 µM)
C=CCn1c(=O)c(C2C(C(=O)OC(C)C)=C(N)OC3=C2C(=O)c2ccccc2C3=O)cc2cc(Cl)ccc21 (stereo not drawn)	500 (≈ 942 µM)	100 (≈ 188 µM)	200 (≈ 377 µM)	500 (≈ 942 µM)	500 (≈ 942 µM)	100 (≈ 188 µM)	250 (≈ 471 µM)
C=CCn1c(=O)c(C2C3=C(CC(C)(C)CC3=O)OC3=C2C(=O)c2ccccc2C3=O)cc2cc(OC)ccc21 (stereo not drawn)	1000 (≈ 1920 µM)	100 (≈ 192 µM)	125 (≈ 240 µM)	250 (≈ 479 µM)	500 (≈ 959 µM)	500 (≈ 959 µM)	500 (≈ 959 µM)
C=CCn1c(=O)c(C2C3=C(CC(C)(C)CC3=O)OC3=C2C(=O)c2ccccc2C3=O)cc2cc(Cl)ccc21 (stereo not drawn)	> 1000	250 (≈ 475 µM)	200 (≈ 380 µM)	500 (≈ 951 µM)	200 (≈ 380 µM)	1000 (≈ 1900 µM)	100 (≈ 190 µM)
CC1(C)S[C@@H]2[C@H](NC(=O)[C@H](N)c3ccccc3)C(=O)N2[C@H]1C(=O)O [AMPICILLIN]	–	–	100 (≈ 286 µM)	100 (≈ 286 µM)	250 (≈ 715 µM)	–	–
C=CCn1c(=O)c(C2C(C#N)=C(N)OC3=C2C(=O)c2ccccc2C3=O)cc2cc(C)ccc21 (stereo not drawn)	1000 (≈ 2220 µM)	500 (≈ 1110 µM)	250 (≈ 556 µM)	100 (≈ 222 µM)	200 (≈ 445 µM)	500 (≈ 1110 µM)	1000 (≈ 2220 µM)
O=C(O)c1cn(C2CC2)c2cc(N3CCNCC3)c(F)cc2c1=O [CIPROFLOXACIN]	–	–	25 (≈ 75.4 µM)	50 (≈ 151 µM)	50 (≈ 151 µM)	–	–
C=CCn1c(=O)c(C2C(C(=O)OC(C)C)=C(N)OC3=C2C(=O)c2ccccc2C3=O)cc2cc(C)ccc21 (stereo not drawn)	> 1000	250 (≈ 490 µM)	25 (≈ 49 µM)	500 (≈ 979 µM)	125 (≈ 245 µM)	1000 (≈ 1960 µM)	500 (≈ 979 µM)
C=CCn1c(=O)c(C2C3=C(CCCC3=O)OC3=C2C(=O)c2ccccc2C3=O)cc2cc(C)ccc21 (stereo not drawn)	500 (≈ 1050 µM)	250 (≈ 524 µM)	500 (≈ 1050 µM)	250 (≈ 524 µM)	250 (≈ 524 µM)	1000 (≈ 2090 µM)	1000 (≈ 2090 µM)
O=C(N[C@H](CO)[C@H](O)c1ccc([N+](=O)[O-])cc1)C(Cl)Cl [CHLORAMPHENICOL]	–	50 (≈ 155 µM)	50 (≈ 155 µM)	50 (≈ 155 µM)	50 (≈ 155 µM)	–	–
